Measurements from patent publication US10385024B2, “Compounds and methods for inhibiting NHE-mediated antiport in the treatment of disorders associated with fluid retention or salt overload and gastrointestinal tract disorders” (Ardelyx, Inc., priority 2012, dated 2019).

Legend:
Assay type in all cases: in vivo, Sprague-Dawley rats
[1] = system: absorption of sodium from the intestinal lumen; test: Inhibition of intestinal sodium absorption (urinary sodium and fecal form); conditions: rat, 3 mg/kg oral gavage, urine 16 h post-dose; asterisks = significance vs vehicle (*P<0.05, **P<0.01, ***P<0.001); read-out: uNa (% of vehicle)
Summary of the method: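 Sprague-Dawley rats (8 weeks, n=6) dosed by oral gavage with compound or water vehicle (10 mL/kg) in late afternoon, then housed in metabolic cages. Over 16 h, urinary sodium measured by ion chromatography and expressed as % of vehicle mean; fecal form scored 1–5, averaged from two observations.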

[2] = Plasma PK; conditions: Sprague-Dawley; rat plasma, oral gavage, nominal dose 30 mg/kg, mean of n=3, sampling 0.5-4 h
Experimental: Sprague-Dawley rats (n=3) were dosed with test compounds by oral gavage. Blood was collected at 0.5, 1, 2 and 4 h via retro-orbital bleeds and processed to plasma using K2EDTA as an anticoagulant. Plasma samples were treated with acetonitrile containing an internal standard and precipitated proteins were removed by centrifugation. Supernatants were analyzed by LC-MS/MS and compound concentrations were determined by interpolation from a calibration curve prepared in plasma. Accurate recovery of quality control samples were confirmed to accept each analytical run.

[3] = Pharmacokinetic evaluation in bile; conditions: bile duct cannulated rats, oral gavage, nominal dose 30 mg/kg, bile collected over 24 h, mean of n=3
Experimental: Bile duct cannulated (BDC) Sprague-Dawley rats were dosed with test compounds by oral gavage and a single aliquot of bile was collected via cannula over the 24 h following dosing. Bile samples were treated with acetonitrile and precipitated proteins were removed by centrifugation. Some compounds required liquid-liquid extraction using MTBE. After centrifugation, samples were diluted as appropriate in mobile phase and analyzed by LC-MS/MS. The concentrations of compounds in bile were determined by interpolation from a standard calibration curve prepared in rat bile from untreated BDC rats. Accurate recovery of quality control samples was confirmed to accept each analytical run. Concentration in bile is reported in nM and represents the mean result from n=3 rats.

Compound CN1Cc2c(Cl)cc(Cl)cc2[C@H](c2cccc(S(=O)(=O)NCCOCCOCCNC(=O)CCC(CCC(=O)NCCOCCOCCNS(=O)(=O)c3cccc([C@@H]4CN(C)Cc5c(Cl)cc(Cl)cc54)c3)(CCC(=O)NCCOCCOCCNS(=O)(=O)c3cccc([C@@H]4CN(C)Cc5c(Cl)cc(Cl)cc54)c3)NC(=O)NCC(=O)O)c2)C1 [Example 7, 18-(3-((S)-6,8-dichloro-2-methyl-1,2,3,4-tetrahydroisoquinolin-4-yl)phenylsulfonamido)-6,6-bis(3-(2-(2-(2-(3-((S)-6,8-dichloro-2-methyl-1,2,3,4-tetrahydroisoquinolin-4-yl)phenylsulfonamido)ethoxy)ethoxy)ethylamino)-3-oxopropyl)-4,9-dioxo-13,16-dioxa-3,5,10-triazaoctadecan-1-oic acid] has a response vs control in vivo at 3 mg/kg [1] of under 35%, an AUC [2] of under 8 ng·h/mL and a Cmax [2] of under 2 ng/mL. The “Concentration in Bile” value [3] was 19 nM.
